One series has as its system Puccinia recondita. Kind of series: Protective activity against Puccinia recondita on wheat (brown rust of wheat). The following applies: comparison to closest prior art; concentration not given; untreated 90. Type of series: in vivo. As for the experimental part: The active compounds were prepared as a stock solution comprising 25 mg of active compound which was made up to 10 ml using a mixture of acetone and/or DMSO and the emulsifier Uniperol® EL (wetting agent having emulsifying and dispersing action based on ethoxylated alkylphenols) in a volume ratio of solvent/emulsifier of 99/1. The mixture was then made up to 100 ml with water. This stock solution was diluted with the solvent/emulsifier/water mixture described to the concentration of active compound stated below. Protective Activity Against Puccinia recondita on Wheat (brown Rust of Wheat) Leaves of potted wheat seedlings of the cultivar “Kanzler” were sprayed to runoff point with an aqueous suspension having the concentration of active compounds stated below. The next day, the treated plants were inoculated with a spore suspension of brown rust of wheat (Puccinia recondite). The plants were then placed in a chamber with high atmospheric humidity (90 to 95%) at 20 to 22° C. for 24 hours. During this time, the spores germinated and the germ tubes penetrated into the leaf tissue. The next day, the test plants were returned to the greenhouse and cultivated at temperatures between 20 and 22° C. and 65 to 70% relative atmospheric humidity for a further 7 days. The extent of the rust fungus development on the leaves was then determined visually.

Molecules are shown by their SMILES.

`CCCCCCc1c(CCC)nc2cc(C)nn2c1N` [I-1] came in with a melting point of 132 to 134 °C. The molecule further came in with an Infection in % in the series on Puccinia recondita of 20%.
Take `CCCCCc1c(CCC)nc2cc(C)nn2c1N` [compound 24, reference compound]: in the series on Puccinia recondita, the Infection in % is listed as 40%.

The melting point is the temperature of the solid-liquid transition.

Values taken from patent US20080171657A1, “5,6-Dialkyl-7-Aminoazolopyrimidines, Their Preparation and Their Use for Controlling Harmful Fungi, and Compositions Comprising These Compounds” (Basf Aktiengesellschaft, priority 2005, published 2008).
